Experimental findings from patent US7041658B2, “Method of inhibiting hair growth” (Kao Corporation, priority 1998, dated 2006) are described below.

In general, inhibition refers to the share of the control response that was lost under treatment.

One experiment concerns elastase. Put plainly: Elastase activity-inhibiting test in cultured human fibroblast. It counts as biochemical. As to conditions: human fibroblast enzyme solution, substrate N-succinyl-(Ala)3-p-nitroanilide, 37° C. 1 hour. The text has this: Normal human fibroblasts commercially available from Dainippon Pharmaceutical Co., Ltd. were subcultured in a DMEM containing a 10% fetal bovine serum and used in this test. The cells separated from a Petri dish with a rubber policeman were suspended in physiological saline, collected by means of a low-speed centrifugal separator and washed 3 times with physiological saline. The thus-treated cells were suspended in a 0.1% Triton X-100/0.2 M Tris-HCl buffer (pH: 8.0) and ultrasonically disrupted to use as an enzyme solution.
125 mM N-Succinyl-(Ala)3-p-nitroanilide was used as a substrate for the measurement of enzyme activity, and each subject (1 μl; its concentration is shown in Table 1) was added to the enzyme solution (100 μl) to conduct a reaction at 37° C. for 1 hour. The reaction was stopped by adding acetic acid (5 μl). The amount of nitroaniline formed was determined by measuring an absorbance at 405 nm by means of a spectrophotometer.

In another experiment the target is T1, neutral endopeptidase (Homo sapiens, UniProt P08473).
T1 construct: suspended in a 0.1% Triton X-100/0.2 M Tris-HCl buffer (pH: 8.0) and ultrasonically disrupted to use as an enzyme solution; host or cells: normal human fibroblasts, Triton X-100 lysate
T1 sequence (P08473 whole entry): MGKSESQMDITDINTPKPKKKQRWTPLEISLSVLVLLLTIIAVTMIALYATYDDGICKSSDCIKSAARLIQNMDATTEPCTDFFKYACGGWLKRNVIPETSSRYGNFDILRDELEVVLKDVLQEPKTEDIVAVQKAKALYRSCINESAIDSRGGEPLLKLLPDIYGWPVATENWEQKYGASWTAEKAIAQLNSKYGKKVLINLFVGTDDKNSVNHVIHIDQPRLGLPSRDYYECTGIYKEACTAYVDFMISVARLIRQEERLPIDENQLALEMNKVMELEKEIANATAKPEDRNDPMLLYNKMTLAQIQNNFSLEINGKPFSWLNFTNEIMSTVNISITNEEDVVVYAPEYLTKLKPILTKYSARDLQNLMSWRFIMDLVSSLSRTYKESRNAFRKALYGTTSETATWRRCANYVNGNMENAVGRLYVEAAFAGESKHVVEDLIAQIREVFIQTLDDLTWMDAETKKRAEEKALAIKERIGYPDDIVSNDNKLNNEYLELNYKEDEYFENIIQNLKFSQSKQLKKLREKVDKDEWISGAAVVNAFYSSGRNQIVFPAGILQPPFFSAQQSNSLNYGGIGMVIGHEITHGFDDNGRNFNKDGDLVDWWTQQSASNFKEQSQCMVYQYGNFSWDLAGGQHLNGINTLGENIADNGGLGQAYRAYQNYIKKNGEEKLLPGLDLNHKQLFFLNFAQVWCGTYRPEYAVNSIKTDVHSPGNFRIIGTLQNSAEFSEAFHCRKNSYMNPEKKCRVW
Put plainly: Neutral endopeptidase activity-inhibiting test in cultured human fibroblast. It counts as biochemical. Particulars: human fibroblast enzyme solution, substrate glutaryl-Ala-Ala-Phe-4-methoxy-2-naphthylamine, read-out: Percent inhibition of neutral endopeptidase activity (%). The text has this:
Normal human fibroblasts commercially available from Dainippon Pharmaceutical Co., Ltd. were subcultured in a DMEM containing a 10% fetal bovine serum and used in this test. The cells separated from a Petri dish with a rubber policeman were suspended in phosphate-buffered physiological saline, collected by means of a low-speed centrifugal separator and washed 3 times with phosphate-buffered physiological saline. The thus-treated cells were suspended in a 0.1% Triton X-100/0.2 M Tris-HCl buffer (pH: 8.0) and ultrasonically disrupted to use as an enzyme solution.
The enzyme solution (2 μl), a solution (1 μl) of each subject compound and 20 mM glutaryl-Ala-Ala-Phe-4-methoxy-2-naphthylamine as a substrate for the measurement of enzyme activity were added to 100 μl of an MES buffer solution (100 mM, pH: 6.5), to which sodium chloride (300 mM) had been added, to conduct a reaction at 37° C. for 1 hour. The reaction was stopped by adding phosphoramidone so as to give a final concentration of 0.4 μM. Aminopeptidase M was added to the reaction mixture so as to give a final concentration of 20 mU, thereby conducting a reaction at 37° C. for 15 minutes. The amount of 4-methoxy-2-naphthylamine formed was determined by measuring a fluorescence intensity at an excitation wavelength of 340 nm and a fluorescence wavelength of 425 nm by means of a fluorescence spectrophotometer, thereby finding percent inhibition of neutral endopeptidase activity by the subject compound.

Experiment [1] has as its system regeneration of mouse back hair. Put plainly: Test of inhibiting regeneration of mouse back hair. Particulars: applied twice a day 100 μl/time to shaved back, C3H mice, vs solvent control. It counts as in vivo. The protocol:
Back hair of a group of 5 C3H mice aged 6 weeks was shaved over 2×4 cm^2 by means of an electric hair clipper and an electric shaver so as not to damage their skins. Each subject was applied to the shaved sites twice a day in an amount of 100 μl/time over 4 weeks. Only the solvent was applied to a control group. After 3 weeks, a photograph of each shaved site was taken at a fixed magnification for observing the state of regenerated hair to compare a regenerated hair area ratio (regenerated hair area/shaved area) of the test group with that of the control group.

Molecules are shown by their SMILES.

Turning to `CC(C)CC(NP(=O)(O)OC1OC(C)C(O)C(O)C1O)C(=O)NC(Cc1c[nH]c2ccccc12)C(=O)O` (stereo not shown) [Compound 1], the “Percent inhibition of elastase activity (%)” value in the experiment with elastase (0.1 mM) was 85.6%. For the same compound, on neutral endopeptidase, the inhibition at 10 µM came out at 99%. Besides, the “Percent inhibition of hair growth after 3 weeks from shaving (%)” value (from here on “Percent inhibition of hair growth … (%)”) in experiment [1] (1 mM in 80% ethanol) is on record as 58.7%.

For `CC(C)CC(NP(=O)(O)CCc1ccccc1)C(=O)NC(Cc1c[nH]c2ccccc12)C(=O)O` (stereo not shown) [Compound 2], the “Percent inhibition of elastase activity (%)” value with elastase (0.1 mM) came out at 82.1%. Further, the inhibition at 10 µM on neutral endopeptidase is 98.8%. Moreover, the “Percent inhibition of hair growth … (%)” value in experiment [1] (1 mM in 80% ethanol) was found to be 59.1%.

In the case of `CC(C)CC(NC(=O)C(CC(C)C)NP(=O)(O)CCc1ccccc1)C(=O)O` (stereo not shown) [Compound 3], the “Percent inhibition of elastase activity (%)” value in the experiment with elastase (0.1 mM) was 90.2%. Besides, the “Percent inhibition of hair growth … (%)” value in experiment [1] (1 mM in 80% ethanol) came to 64.8%.

Regarding `CC(C)CC(NP(=O)(O)CCc1ccccc1)C(=O)NCC(=O)O` (stereo not shown) [Compound 4], in the experiment on elastase (1 mM), the “Percent inhibition of elastase activity (%)” value amounted to 68.4%. Moreover, in experiment [1] (10 mM in 80% ethanol), the “Percent inhibition of hair growth … (%)” value stood at 60.5%.

Take `O=C(O)CCNC(=O)C(CS)Cc1ccccc1` (stereo not shown) [Compound 7]: in the experiment on elastase (0.1 mM), the “Percent inhibition of elastase activity (%)” value came to 85.4%. Also, the inhibition at 10 µM at neutral endopeptidase worked out at 97.1%. The “Percent inhibition of hair growth … (%)” value in experiment [1] (1 mM in 80% ethanol) is 59.7%.

Turning to `O=C(O)CNC(=O)C(CS)Cc1ccccc1` (stereo not shown) [Compound 8], the “Percent inhibition of elastase activity (%)” value in the experiment with elastase (0.1 mM) was determined as 89.6%. For the same compound, the inhibition at 10 µM at neutral endopeptidase was 96.3%. Moreover, in experiment [1] (1 mM in 80% ethanol), the “Percent inhibition of hair growth … (%)” value is 71.6%.
